This is an account of results in EP3381908A1, “2-(4-(4-(BROMO-METHOXYBENZAMIDO)BENZYLAMINO)PHENYL)BENZAZOLE DERIVATIVES AND THEIR USE AS ANTI-HEPARANASE” (Leadiant Biosciences SA, priority 2017, dated 2018).

Read-outs that look alike come from different tables or passages of the source.

For orientation: IC50 means the point on the concentration scale where inhibition reaches its midpoint.

One assay deals with T1, heparanase (Homo sapiens, UniProt Q9Y251).
T1 sequence (Q9Y251 158-543 limits assumed): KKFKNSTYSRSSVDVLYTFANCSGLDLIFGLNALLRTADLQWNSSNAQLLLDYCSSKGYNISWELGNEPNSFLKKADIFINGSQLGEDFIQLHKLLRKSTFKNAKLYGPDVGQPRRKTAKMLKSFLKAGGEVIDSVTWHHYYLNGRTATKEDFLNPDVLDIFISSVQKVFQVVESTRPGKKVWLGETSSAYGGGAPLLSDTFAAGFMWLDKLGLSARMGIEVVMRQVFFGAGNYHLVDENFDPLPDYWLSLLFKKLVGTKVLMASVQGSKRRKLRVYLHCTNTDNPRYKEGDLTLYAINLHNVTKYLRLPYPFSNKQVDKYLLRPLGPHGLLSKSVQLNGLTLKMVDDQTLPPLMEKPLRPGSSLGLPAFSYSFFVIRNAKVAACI
T1 sequence (Q9Y251 36-109 limits assumed): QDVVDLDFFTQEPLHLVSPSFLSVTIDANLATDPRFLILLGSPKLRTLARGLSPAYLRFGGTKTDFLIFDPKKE
As to the kind of experiment: AGA*IA assay (fondaparinux cleavage, WST-1 colorimetric) for heparanase inhibition. The format is biochemical. As to the method: All compounds were tested in a simple, accurate and robust microplate assay based on the cleavage of the synthetic heparin fragment, the pentasaccharide Fondaparinux (AGA*IA). This assay was originally developed by Hammond and coworkers [Hammond E, Li CP, Ferro V. Development of a colorimetric assay for heparanase activity suitable for kinetic analysis and inhibitor screening. […] Fondaparinux is cleaved by heparanase to generate a reducing disaccharide, which can be quantitatively measured via a colorimetric or a fluorescence assay, the last by the fluorescent sensor polymer-H [Schiemann S, Lühn S, Alban S. Development of both colorimetric and fluorescence heparinase activity assays using fondaparinux as substrate.
The assay measures the appearance of the disaccharide product of heparanase-catalyzed fondaparinux cleavage colorimetrically using the tetrazolium salt WST-1. Assay was essentially performed as described with minor modifications. Briefly, NUNC ELISA 96-well plates were pre-treated with a solution of 4% BSA (bovin serum albumin) in phosphate-buffered saline containing 0.05% Tween 20 (PBST), for 2 h at 37°C, then washed three times with PBST, dried by tapping on paper towel and stored at -20°C. Before use, once again, the plates were washed with PBST.
Then, the absorbance at 560 nm was measured through a microplate reader (Victor 3, Perkin Elmer).
Finally, the measurements were corrected by subtracting both the reagent background and the inner absorbance value of test compound. Table 2. IC50 value in AGA*IA assay, versus heparanase inhibition of selected compounds of present invention.
(Tetrazolium assays rely on reduction of a dye to a coloured formazan, in cell work by metabolically active cells.)

Assay [1] relates to HT1080 (human fibrosarcoma). Put plainly: SRB Cell Cytotoxicity Assay, 72h. Conditions: Conc. 2.5 µM, N.I.: Not Inhibition. The format is cell-based.
Description: (§4) SRB Cell Cytotoxicity Assay is an assay based upon the quantitative staining of cellular proteins by sulforhodamine B (SRB). […] Sulforhodamine B is an anionic aminoxanthene dye that forms an electrostatic complex with the basic amino acid residues of proteins under moderately acid conditions, which provides a sensitive linear response.
(§5) Inhibition of cell proliferation was then measured by the classical colorimetric SRB Cell Cytotoxicity assay. Absorbance was measured by spectrophotometer at a wavelength of 510 nm and cell proliferation was determined as percent with respect to control cells (cells treated with the vehicle alone). EC50 values were then determined by GraphPad Prism.
In assay [2] the test system is U87MG (human glioblastoma astrocytoma). As to the kind of experiment: SRB Cell Cytotoxicity Assay, 72h. Conditions: Conc. 2.5 µM, N.I.: Not Inhibition. The format is cell-based.
Description: as §4, §5
The test system of assay [3] is U2OS (human osteosarcoma). As to the kind of experiment: SRB Cell Cytotoxicity Assay, 72h. The following applies: Conc. 2.5 µM, N.I.: Not Inhibition. The format is cell-based.
Description: as §4, §5
Assay [4] deals with HT1080 (human fibrosarcoma). As to the kind of experiment: Matrigel cell invasion assay. The format is cell-based. As to the method: (§1) Heparanase inhibitors were then evaluated for their activity on the invasive potential of HT1080 (human fibrosarcoma), U87MG (human glioblastoma astrocytoma) and U2OS (human osteosarcoma) human cell lines, using the Matrigel cell invasion assay which allows to assess the cell invasion ability of malignant and normal cells.
(§2) Invasion assay was performed using BioCoat cell culture inserts (BioCoat 8.0µm PET Membrane 24 Well Permeable Supports, Corning). Filters were coated with 100 µl of 300 µg/ml Matrigel dissolved in coating buffer (0.01M Tris pH 8.0, 0.7% NaCl) (Becton-Dickinson Sciences). DMEM (Dulbecco's Modified Eagle's Medium) containing 5% FBS was added to the lower chambers. Cells were pre-treated with heparanase inhibitors for 24 h, detached and added to the upper chambers in media containing the inhibitors. Cells were allowed to invade for 24 h at 37°C in a CO2 incubator and then unmigrated cells were removed from the upper chamber with a cotton swab. The invading cells were fixed, stained with 0.1% crystal violet for 10 min at room temperature, photographed and counted under inverted microscope.
(§3) Test compounds were analyzed at fixed concentration for several fields, in duplicates. Activity of test compounds was compared to the reference compound. Activity of most interesting compound was confirmed in a second cell invasion assay. Data were expressed as the percent invasion with respect to cell migration through uncoated insert membrane.

In assay [5] the test system is U2OS (human osteosarcoma). Put plainly: Matrigel cell invasion assay. The assay is classed as cell-based. The method, then:
as §1, §2, §3

For assay [6], the system named is U87MG (human glioblastoma astrocytoma). As to the kind of experiment: Matrigel cell invasion assay. The format is cell-based. The method, then:
as §1, §2, §3

For the next assay, the system named is FGF-1. As to the kind of experiment: Real-Time Quantitative PCR of mRNA gene expression in HT1080 cells. Conditions: 24 h, Conc 1.0 uM.
A further assay relates to FGF-2. Described as above. The following applies: 24 h, Conc 1.0 uM.
The test system of the next assay is VEGF. The description is as above. Conditions: 24 h, Conc 1.0 uM.
In the next assay the test system is MMP-9. Described as above. Conditions: 24 h, Conc 1.0 uM.
The mark [7] stands for this setting: Table 1, fluorinated vs non-fluorinated analogues.
Setting [8] is: Table 3, fluorinated vs non-fluorinated derivatives, read-out: AGAIA assay IC50.

Description for FGF-1: (§6) To evaluate the effect of heparanase inhibitors on the tumor transcription of genes encoding for proangiogenic factors, such as FGF1/2, VEGF, MMP-9, HSPE-1, the relative mRNA levels were analyzed by quantitative Real-Time Quantitative PCR.
(§7) To perform the assay, HT1080 (human fibrosarcoma) cells were cultured in complete medium containing 10%FCS (fetal calf serum). Cells were plated in 24-well plates and treated at fixed concentration (i.e., highest non-toxic concentration) of test compounds. After 24 h, cells were detached, collected and total RNA extracted by RNeasy Mini Kit (QIAGEN). Following reverse transcription step, FGF1/2, VEGF, MMP-9, HSPE-1 mRNA levels, were quantified by qPCR using the advanced Universal SYBR Green Supermix (Bio Rad) and ABI PRISM 7900HT Thermal Cycler System (Perkin Elmer), according to the manufacturer's instructions. […] Relative levels of RNA were calculated using the ddCt method. Standard curve and sample data were run in duplicate.
Description for FGF-2: as §6, §7
Description for MMP-9: as §6, §7
Description for VEGF: as §6, §7

Regarding `COc1ccc(C(=O)Nc2ccc(CNc3ccc(-c4nc5cc(CC(=O)O)ccc5[nH]4)cc3)cc2)cc1Br` [SST0914AA1, 2-(2-(4-((4-(3-bromo-4-methoxybenzamido)benzyl)amino)-phenyl)-1H-benzo[d]imidazol-5-yl)acetic acid, reference compound], the IC50 on heparanase (setting [7]) and at heparanase (setting [8]) was greater than 10000 nM in each case.
Take `COc1ccc(C(=O)Nc2ccc(CNc3ccc(-c4nc5cc(CC(=O)NCC(=O)O)ccc5[nH]4)cc3F)cc2)cc1Br` [Compound 15, 2-(2-(2-(4-((4-(3-bromo-4-methoxybenzamido)benzyl)amino)-3-fluorophenyl)-1H-benzo[d]imidazol-5-yl)acetamido)acetic acid]: the IC50 at heparanase (Table 2, class symbols) was 500 to 990 nM. In addition, the “Concentration of test compounds at which the cell growth is inhibited by 50 % HT1080” value in [1] is “N. I”. The “Concentration of test compounds at which the cell growth is inhibited by 50 % U87MG” value in [2] is listed as “N. I”. Further, in assay [3], the “Concentration of test compounds at which the cell growth is inhibited by 50 % U2OS” value is given as “N. I”. Moreover, in assay [4] (Conc. 2.5µM), the “Invasion Assay HT1080” value is “+ (+ : < 50%)”. The “Invasion Assay U2OS” value in assay [5] (Conc. 2.5µM) is reported as “+ (+ : < 50%)”. In addition, the “Invasion Assay U87MG” value in assay [6] (Conc. 2.5µM) is given as “+ (+ : < 50%)”.
`COc1ccc(C(=O)Nc2ccc(CNc3ccc(-c4nc5ccccc5[nH]4)cc3)cc2)cc1Br` [SST0408AA1, reference compound]: in the assay on FGF-1, the “Gene Expression (% mRNA vs. control) FGF-1” value was “∼ 97%”. Besides, the “Gene Expression (% mRNA vs. control) FGF-2” value in the assay on FGF-2 is “∼ 92%”. For the same molecule, the “Gene Expression (% mRNA vs. control) VEGF” value in the assay with VEGF is “∼ 72%”. The “Gene Expression (% mRNA vs. control) MMP-9” value in the assay on MMP-9 is “∼ 69%”.
For `Cc1ccc(C(=O)Nc2ccc(S(=O)(=O)O)c3cc(S(=O)(=O)O)cc(S(=O)(=O)O)c23)cc1NC(=O)c1cccc(NC(=O)Nc2cccc(C(=O)Nc3cc(C(=O)Nc4ccc(S(=O)(=O)O)c5cc(S(=O)(=O)O)cc(S(=O)(=O)O)c45)ccc3C)c2)c1` [Suramin, reference compound], the “Invasion Assay HT1080” value in assay [4] (Conc. 10µM) was “+ (+ : < 50%)”. Besides, the “Invasion Assay U2OS” value in assay [5] (Conc. 10µM) is “-”. The “Invasion Assay U87MG” value in assay [6] (Conc. 10µM) was “-”.
As for `COc1ccc(C(=O)Nc2ccc(CNc3ccc(-c4nc5ccccc5[nH]4)cc3F)cc2)cc1Br` [Compound 22], the “Invasion Assay HT1080” value in [4] (Conc. 1.1µM) was “++ (++: 50-90%)”. Further, in assay [5] (Conc. 1.1µM), the “Invasion Assay U2OS” value is given as “++ (++: 50-90%)”. In addition, the “Invasion Assay U87MG” value in [6] (Conc. 1.1µM) was “++ (++: 50-90%)”. Besides, the “Gene Expression (% mRNA vs. control) FGF-1” value with FGF-1 was “∼ 77%”. Also, the “Gene Expression (% mRNA vs. control) FGF-2” value in the assay on FGF-2 is “∼ 71%”. In the assay on VEGF, the “Gene Expression (% mRNA vs. control) VEGF” value is recorded as “∼ 67%”. For the same molecule, the “Gene Expression (% mRNA vs. control) MMP-9” value with MMP-9 is given as “∼ 52%”.
Regarding `COc1ccc(C(=O)Nc2ccc(CNc3ccc(-c4nc5cc(CC(=O)O)ccc5o4)cc3)cc2)cc1Br` [SST0915AA1, 2-(2-(4-((4-(3-bromo-4-methoxybenzamido)benzyl)amino)phenyl)benzo[d]oxazol-5-yl)acetic acid, reference compound], the IC50 at heparanase (setting [7]) and on heparanase (setting [8]) was greater than 10000 nM throughout.
`COc1ccc(C(=O)Nc2ccc(CNc3ccc(-c4nc5cc(CC(=O)O)ccc5[nH]4)cc3F)cc2)cc1Br` [Compound 10, 2-(2-(4-((4-(3-bromo-4-methoxybenzamido)benzyl)amino)-3-fluorophenyl)-1H-benzo[d]imidazol-5-yl)acetic acid]: the IC50 against heparanase (setting [7]) is 2860 nM; at heparanase (Table 2, class symbols) it was 1000 to 20000 nM; on heparanase (setting [8]), 2860 nM.
